≈ marks a conversion by molar mass, not a printed value. Where two headings read alike, the source gives them in different places.
Columns and labels:
[1] = test system: T. versicolor (white rot fungi); assay: agar dilution plate method, wood rot fungi (MIC, IC50, percent retardation); assay type: cell-based; settings: for MIC: Trametes versicolor; for T. versicolor IC50: Table2D curve fitting
[2] = test system: C. globosum (soft rot decay fungi); assay: as above; assay type: cell-based; settings: for MIC: Chaetomium globosum
[3] = test system: P. placenta (brown rot fungi); assay: as above; assay type: cell-based; settings: for P. placenta IC50: Table2D curve fitting
[4] = test system: G. trabeum (brown rot fungi); assay: as above; assay type: cell-based; settings: for MIC: Gloeophyllum trabeum; for G. trabeum IC50: Table2D curve fitting
[5] = cited from earlier work; for Solubility in Water^b: Material Safety Data Sheet; for Solubility in water^a: The Pesticide Manual, 11th Edition
[6] = azole alone, read-out: T. versicolor MIC
[7] = azole alone, read-out: C. globosum MIC
[8] = azole alone, Table2D curve fitting
[9] = azole alone, read-out: P. placenta MIC
[10] = azole alone, read-out: G. trabeum MIC
[11] = amine oxide alone, 100% growth retardation
[12] = amine oxide alone, 100% growth retardation, read-out: MIC (ppm of amine oxides) T. versicolor
[13] = amine oxide alone, 100% growth retardation, read-out: MIC (ppm of amine oxides) C. globosum
[14] = amine oxide alone, 100% growth retardation, read-out: MIC (ppm of amine oxides) P. placenta
[15] = amine oxide alone, 100% growth retardation, read-out: MIC (ppm of amine oxides) G. trabeum

Molecule	MIC [1, 6] [µg/mL]	T. versicolor IC50 ([1]; azole alone) [ppm]	MIC [2, 7] [µg/mL]	C. globosum IC50 [2, 8] [ppm]	P. placenta IC50 ([3]; azole alone) [ppm]	MIC [3, 9] [µg/mL]	MIC [4, 10] [µg/mL]	G. trabeum IC50 ([4]; azole alone) [ppm]	MIC (ppm of amine oxides) T. versicolor [1, 11] [ppm]	MIC (ppm of amine oxides) C. globosum [2, 11] [ppm]	MIC (ppm of amine oxides) P. placenta [3, 11] [ppm]	MIC (ppm of amine oxides) G. trabeum [4, 11] [ppm]	other results
N#CC(CCc1ccc(Cl)cc1)(Cn1cncn1)c1ccccc1 (stereo not shown) [Fenbuconazole, fenbuconazole]	25 (≈ 74.2 µM)	1.1	50 (≈ 148 µM)	10.7	3.9	25 (≈ 74.2 µM)	50 (≈ 148 µM)	0.3	–	–	–	–	Solubility in Water^b ([5]; 25° C.): 4 ppm at 25 °C; Solubility in water^a ([5]; 25° C.): 0.2 ppm/25 °C
CCCCCCCCCCCC[N+](C)([O-])Cc1ccccc1 (stereo not shown) [Dodecyl-BMAO]	–	–	–	–	–	–	–	–	>1000	>1000	>1000	1000	–
CCCCCCCC/C=C\CCCCCCCC[N+](C)(C)[O-] [Oleyl-DMAO]	–	–	–	–	–	–	–	–	>1000	>1000	>1000	>1000	–
CCCCCCCCCCCCCC[N+](C)(C)[O-] [Tetradecyl-DMAO, tetradecyl dimethylamine oxide]	–	–	–	–	–	–	–	–	–	–	–	–	MIC [1, 12]: > 1000 µg/mL; Qa, concentration of amine oxide alone required to yield 100% retardation, T. versicolor ([1]; amine oxide alone): 1000 ppm; MIC [2, 13]: > 1000 µg/mL; Qa, concentration of amine oxide alone required to yield 100% retardation, P. placenta ([3]; amine oxide alone): 1000 ppm; MIC [3, 14]: > 1000 µg/mL; MIC [4, 15]: > 1000 µg/mL; Qa, concentration of amine oxide alone required to yield 100% retardation, G. trabeum ([4]; amine oxide alone): 1000 ppm
tallow-alkyl-di(hydroxyethyl)amine oxide [Tallow-di(hydroxyethyl)-amine oxide]	–	–	–	–	–	–	–	–	>1000	>1000	>1000	>1000	–
CC(C1CC1)C(O)(Cn1cncn1)c1ccc(Cl)cc1 (stereo not shown) [Cyproconazole, cyproconazole]	2.5 (≈ 8.57 µM)	0.2	25 (≈ 85.7 µM)	2.3	0.7	2.5 (≈ 8.57 µM)	2.5 (≈ 8.57 µM)	0.3	–	–	–	–	–
branched alkyl (C10-C14) dimethylamine oxide [Branched alkyl (C10-C14) DMAO]	–	–	–	–	–	–	–	–	–	>1000	–	–	IC50 T. versicolor [1]: 84 ppm; MIC (ppm of amine oxides) T. versicolor [1]: 500 ppm; MIC T. versicolor [1]: 500 ppm; Qa, concentration of amine oxide alone required to yield 100% retardation, T. versicolor [1]: 500 ppm; MIC C. globosum ([2]; Table 8, ppm of amine oxide or didecyldimethyl ammonium chloride): >1000 ppm; IC50 C. globosum ([2]; ppm of amine oxide or didecyldimethyl ammonium chloride, Table2D curve fitting): 153 ppm; IC50 P. placenta [3]: 89 ppm; MIC (ppm of amine oxides) P. placenta [3]: 500 ppm; MIC P. placenta [3]: 500 ppm; Qa, concentration of amine oxide alone required to yield 100% retardation, P. placenta [3]: 500 ppm; IC50 G. trabeum [4]: 44 ppm; MIC (ppm of amine oxides) G. trabeum [4]: 250 ppm; MIC G. trabeum [4]: 250 ppm; Qa, concentration of amine oxide alone required to yield 100% retardation, G. trabeum [4]: 250 ppm
CC(C)(C)C(=O)C(Oc1ccc(Cl)cc1)n1cncn1 (stereo not shown) [Triadimefon, triadimefon]	–	–	–	–	–	–	–	–	–	–	–	–	Solubility in Water^b ([5]; 20° C.): 64 ppm at 20 °C; Solubility in water^a ([5]; 20° C.): 64 ppm/20 °C
CC(C)(C)C(O)(CCc1ccc(Cl)cc1)Cn1cncn1 (stereo not shown) [Tebuconazole, tebuconazole]	25 (≈ 81.2 µM)	2.3	50 to 500 (≈ 162 to 1620 µM)	34.5	1.7	50 (≈ 162 µM)	10 (≈ 32.5 µM)	<0.1	–	–	–	–	Qb, concentration of azole alone required to yield 100% retardation, T. versicolor ([1]; azole alone): 25 ppm; Qb, concentration of azole alone required to yield 100% retardation, P. placenta ([3]; azole alone): 50 ppm; Qb, concentration of azole alone required to yield 100% retardation, G. trabeum ([4]; azole alone): 10 ppm; Solubility in Water^b ([5]; 20° C.): 32 ppm at 20 °C
CCCCCCCCCCCCCCCC[N+](C)(C)[O-] [Hexadecyl-DMAO, hexadecyl dimethylamine oxide]	–	–	–	–	–	–	–	–	–	–	–	–	MIC [1, 12]: > 1000 µg/mL; Qa, concentration of amine oxide alone required to yield 100% retardation, T. versicolor ([1]; amine oxide alone): 1000 ppm; MIC [2, 13]: > 1000 µg/mL; Qa, concentration of amine oxide alone required to yield 100% retardation, P. placenta ([3]; amine oxide alone): 1000 ppm; MIC [3, 14]: > 1000 µg/mL; MIC [4, 15]: > 1000 µg/mL; Qa, concentration of amine oxide alone required to yield 100% retardation, G. trabeum ([4]; amine oxide alone): 1000 ppm

— patent US6527981B1, “Azole/amine oxide preservatives” (Lonza Inc., priority 1999, dated 2003)
